Data reported in patent US8623661B2, “Iron chelating agent, method for producing same, method for determining amount of iron ions and method for trapping iron ions” (National University Corporation Asahikawa Medical College, priority 2008, dated 2014).

Tested on: iron nitrilotriacetate complex (Fe-NTA)
Assay: Evaluation C: chelating ability in MOPS/acetonitrile solvent, Fe-NTA solution
Type: binding
Experimental: Evaluation was carried out by the following evaluation method C as to whether or not the iron chelating agent according to Examples 1 to 3 had chelating ability with iron in 3-morpholinopropanesulfonic acid (C7H15NO4S;MOPS) and acetonitrile solution as solvents used in high performance liquid chromatography (HPLC).
2.09 g of morpholinopropanesulfonic acid (C7H15NO4S; FW=209.26, Code 341-01801, Lot PX013, manufactured by Dojindo/Wako Corporation) was added to a 100 mL Erlenmeyer flask, 80 mL of ultrapure water (pure water produced by an ultrapure water production system manufactured by Millipore Corporation (Milli-Q); “Milli-Q water”) was added thereto and dissolved [pH 4.15 (24.4° C.)]. To this solution, 1N sodium hydroxide solution (1 mol/1 sodium hydroxide solution, Code 192-02175, Lot SEP7274, manufactured by Wako Pure Chemicals Industries) was added in 100 μl portions, the pH was adjusted to 7.0 and further Milli-Q water was made up to 100 mL in a measuring cylinder, whereby 100 mL of MOPS solution (pH 6.99) was prepared.
An iron chelating agent solution having an iron chelating agent concentration of 50 mM was prepared with respect to the iron chelating agent according to Examples 1 to 3, in the same manner as the preparation method of the iron chelating solution in evaluation A of the iron chelating agent.
Further, 100 mM of MOPS solution (pH6.99) prepared by the preparation method of the MOPS solution was used.
Furthermore, a stock solution of acetonitrile (C2H3N, FW=41.05, Code 347-06641, Lot WPI96, manufactured by Dojindo/Wako corporation) was used.
13.8 mL of Milli-Q water was taken in a 50 mL conical tube, 1.2 mL of each of the iron chelating agent solutions (Fe-Ser•Na (50 mM), Fe-His•Na (50 mM), Fe-Glu•Na (50 mM)) according to the iron chelating agents of Examples 1 to 3 was added, 1.0 mL of 100 mM MOPS solution was added thereto, and a further 4.0 mL of acetonitrile solution was added to produce an iron chelating solution using MOPS. The iron chelating agent solutions using MOPS and iron chelating agent according to Examples 1 to 3 were defined respectively as Fe-Ser•Na (MOPS solution)” (iron chelating agent according to
Example 1), “Fe-His•Na (MOPS solution)” (iron chelating agent according to Example 2), and “Fe-Glu•Na(MOPS solution)” (iron chelating agent according to Example 3).
Further, iron nitrilotriacetate complex solution (“Fe-NTA solution (20 mM)”) having a concentration of iron ions of 20 mM and iron nitrilotriacetate complex solution (“Fe-NTA solution (2 mM)”) having a concentration of iron ions of 2 mM were prepared, in the same manner as the preparation method of iron nitrilotriacetate complex solution in evaluation B of the iron chelating agent.
Further, Fe-NTA solution (20 mM) was added to and mixed with each of the iron chelating agent solutions [Fe-Ser•Na (MOPS solution), Fe-His•Na (MOPS solution), Fe-Glu•Na (MOPS solution)] using MOPS. […] Further, Fe-NTA solution (2 mM) was added and mixed thereto as described above.

For `O=C(O)C(CO)NCc1ccccc1O` (centres unmarked) [Example 1, o-[(1-carboxy-2-hydroxyethyl)-amino-methyl]-phenol], the “colour of the solution after mixing” value (Fe-NTA solution (2 mM) added to chelating agent MOPS solution (MOPS, acetonitrile)) was “dark brown-colored” and the “colour of the solution after mixing” value (Fe-NTA solution (20 mM) added to chelating agent MOPS solution (MOPS, acetonitrile)) was “dark brown-colored”.
